From PubChem BioAssay (NCI)
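Interpolation was linear, between the two tested concentrations surrounding the appropriate level; five concentrations were tested over 48 hours in 96-well plates. GI50 is the concentration that inhibits growth by half. TGI is the concentration that stops growth completely.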

Experiments:
Experiment in all cases: growth of human tumour cells (NCI), 48 h
[1] = system: PC-3 prostate
[2] = system: NCI-H460 lung
[3] = system: K-562 leukemia
[4] = system: M14 melanoma
[5] = system: UACC-62 melanoma
[6] = system: NCI-H226 lung
[7] = system: EKVX NSCLC
[8] = system: SNB-19 CNS
[9] = system: A498 renal
[10] = system: MALME-3M melanoma

Structure (SMILES) | TGI [1] | TGI [2] | TGI [3] | TGI [4] | TGI [5] | TGI [6] | TGI [7] | TGI [8] | TGI [9] | GI50 [1] | GI50 [2] | GI50 [4] | GI50 [5] | GI50 [6] | GI50 [7] | GI50 [10] | TGI [10] | GI50 [8] | GI50 [9] | GI50 [3]
C/C=C/C=C\C1OC(O)([C@H](CC)C(=O)NC/C=C/C=C(\C)[C@H](OC)C(C)C2OC(\C=C/C=C/C=C(\C)C(=O)c3c(O)ccn(C)c3=O)[C@H](O)[C@@H]2O)C(O)C(O)C1(C)C (stereo partly specified) | > 100 µM | > 100 µM | > 100 µM | > 100 µM | > 100 µM | > 100 µM | > 100 µM | > 100 µM | > 100 µM | – | – | – | – | – | – | – | – | – | – | –
C=C1C(=O)O[C@H]2[C@H]1CC/C(CNS(=O)(=O)c1cccc3ccccc13)=C\CC[C@@]1(C)O[C@@H]21 | 4.51 µM | 17 µM | – | 3.32 µM | 4.5 µM | 33 µM | 10.3 µM | 19.8 µM | 17.2 µM | 1.91 µM | 4.28 µM | 1.53 µM | 1.67 µM | 13.2 µM | 2.53 µM | 1.77 µM | 4.09 µM | 5.44 µM | 4.85 µM | –
O=C(NCP(=O)(O)O)c1cccnc1 | > 100 µM | > 100 µM | > 100 µM | > 100 µM | > 100 µM | > 100 µM | > 100 µM | > 100 µM | > 100 µM | – | – | – | – | – | – | – | – | – | – | –
Cc1nn(-c2nc3ccccc3[nH]2)c2c1C(c1ccc3c(c1)OCO3)CC(=O)N2 (stereo unspecified) | 22 µM | 5.55 µM | > 100 µM | 5.98 µM | 3.13 µM | 7.09 µM | – | > 100 µM | 4.42 µM | 3.16 µM | 2.36 µM | 2.31 µM | 1.66 µM | 2.45 µM | – | 2.12 µM | 6.04 µM | 4.45 µM | 1.61 µM | 3.58 µM
CC1=C(C(=O)Nc2ccc(F)c(Cl)c2)C(c2cccc(Oc3ccccc3)c2)NC(=O)N1 (stereo unspecified) | 22.3 µM | 38.4 µM | – | 29.3 µM | 24.8 µM | 37.4 µM | 31.8 µM | 31.3 µM | 23.4 µM | 10.5 µM | 15.7 µM | 15.2 µM | 12.4 µM | 16.2 µM | 14.8 µM | – | – | 16 µM | 10.5 µM | –
CN(C)c1ccc(O)c2c1C[C@H]1C[C@H]3[C@H](N(C)C)C(=O)C(C(N)=O)=C(O)[C@@]3(O)C(=O)C1=C2O | 93.2 µM | 20.7 µM | – | 65.9 µM | 16.9 µM | 84.5 µM | > 100 µM | > 100 µM | 10.5 µM | 6.61 µM | 3.45 µM | 5.09 µM | 3.35 µM | 8.58 µM | 6.7 µM | 7.51 µM | 33.3 µM | 5.93 µM | 1.49 µM | –
COC(=O)c1cc2oc(/C=C3\SC(=S)N(NC(C)=O)C3=O)cc2n1Cc1ccccc1 | 9.82 µM | 37.1 µM | > 50 µM | 16.4 µM | 16.6 µM | 22.4 µM | 15.3 µM | 21.2 µM | 16.8 µM | 1.61 µM | 1.28 µM | 8.04 µM | 8.91 µM | 9.72 µM | 3.08 µM | – | – | 6.8 µM | 8.07 µM | 1.08 µM
O=C(/C=C/c1ccc(C(F)(F)F)cc1)c1ccc(Nc2nc(NCCO)nc(N3CCOCC3)n2)cc1 | 7.83 µM | 4.44 µM | > 100 µM | 4.28 µM | 8.87 µM | 5.89 µM | 8.01 µM | – | 12 µM | 2.24 µM | 2.15 µM | 2.01 µM | 2.76 µM | 2.32 µM | 2.44 µM | 2.91 µM | 10.2 µM | – | 1.4 µM | 2.33 µM
O=C(CN1C(=O)c2ccccc2C1=O)C(O)CN1C(=O)c2ccccc2C1=O (stereo unspecified) | > 100 µM | > 100 µM | – | > 100 µM | > 100 µM | > 100 µM | > 100 µM | > 100 µM | > 100 µM | – | – | – | – | – | – | – | – | – | – | –
N=C(N)c1ccc(-c2ccc(-c3cccs3)s2)nc1 | 6.11 µM | 0.449 µM | 3.81 µM | 3.63 µM | 3.22 µM | 15.8 µM | – | 20.8 µM | 0.74 µM | 1.88 µM | 0.0334 µM | 1.86 µM | 1.7 µM | 2 µM | – | 1.96 µM | 3.57 µM | 3.48 µM | 0.165 µM | 1.61 µM
O=C(CCCCCCC(=O)Nc1ccc2c(c1)/C(=C/c1ccc[nH]1)C(=O)N2)NO | > 100 µM | > 100 µM | > 100 µM | 10 µM | 1.39 µM | 12 µM | – | 33.2 µM | 2.06 µM | 0.851 µM | 2.67 µM | 0.427 µM | 0.287 µM | 2.28 µM | – | 0.0758 µM | 35.4 µM | 0.585 µM | 0.358 µM | 0.333 µM
COc1cccc2c(=O)c3c(sc12)c(NCCN(C)C)nc1ccccc13 | 3.03 µM | 2.88 µM | 2.8 µM | 2.94 µM | 3.24 µM | 4.03 µM | 2.99 µM | – | 2.93 µM | 1.34 µM | 1.34 µM | 1.56 µM | 1.72 µM | 1.75 µM | 1.51 µM | 1.83 µM | 3.59 µM | – | 1.49 µM | 1.02 µM
